These results are taken from patent US20090186918A1, “Triazole Compounds as Lipoxygenase Inhibitors” (priority 2005, published 2009).

The structures appear in SMILES notation.

The target of one test is T1, purified human 15-lipoxygenase (Homo sapiens, UniProt P16050).
T1 sequence (P16050 1-662): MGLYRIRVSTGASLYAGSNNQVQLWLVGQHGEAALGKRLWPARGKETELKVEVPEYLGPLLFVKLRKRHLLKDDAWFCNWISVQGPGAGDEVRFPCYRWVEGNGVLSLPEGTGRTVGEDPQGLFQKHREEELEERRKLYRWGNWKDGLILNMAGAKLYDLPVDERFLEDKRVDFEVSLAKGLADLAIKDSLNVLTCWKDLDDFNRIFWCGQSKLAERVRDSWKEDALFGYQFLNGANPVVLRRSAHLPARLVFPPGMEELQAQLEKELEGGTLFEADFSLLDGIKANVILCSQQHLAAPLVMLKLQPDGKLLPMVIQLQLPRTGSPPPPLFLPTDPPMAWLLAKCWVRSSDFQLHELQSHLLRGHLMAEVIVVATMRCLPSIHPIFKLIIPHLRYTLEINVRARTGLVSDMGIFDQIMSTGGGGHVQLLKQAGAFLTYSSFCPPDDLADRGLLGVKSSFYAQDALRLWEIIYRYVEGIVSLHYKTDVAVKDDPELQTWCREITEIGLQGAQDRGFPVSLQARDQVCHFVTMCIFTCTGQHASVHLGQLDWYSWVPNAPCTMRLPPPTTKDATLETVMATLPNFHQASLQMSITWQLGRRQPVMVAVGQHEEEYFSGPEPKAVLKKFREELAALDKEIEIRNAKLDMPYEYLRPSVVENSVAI
The test can be described thus: 15-lipoxygenase inhibition assay (arachidonic acid oxidation, 15-HPETE/15-HETE measured by reverse phase HPLC).
Conditions: not given
The test is classed as biochemical. On the procedure:
The assay employed takes advantage of the ability of lipoxygenases to oxidize polyunsaturated fatty acids, containing a 1,4-cis-pentadiene configuration, to their corresponding hydroperoxy or hydroxyl derivatives. In this particular assay, the lipoxygenase was a purified human 15-lipoxygenase and the fatty acid was arachidonic acid. The assay is performed at room temperature (20-22° C.) and the following are added to each well in a 96-well microtiter plate:
a) 35 μL phosphate buffered saline (PBS) (pH 7.4); b) inhibitor (i.e. compound) or vehicle (0.5 μl DMSO); c) 10 μL of a 10× concentrated solution of 15-lipoxygenase in PBS. The plates are incubated for 5 minutes at room temperature;
d) 5 μl of 0.125 mM arachidonic acid in PBS. The plate is then incubated for 10 minutes at room temperature;
e) the enzymatic reaction is terminated by the addition of 100 μl methanol; and f) the amount of 15-hydroperoxy-eicosatetraenoic acid or 15-hydroxy-eicosatetraenoic acid is measured by reverse phase HPLC.
With `O=C(Nc1cnc2ccccc2c1)c1cn[nH]n1` [Example 1, 1,2,3-Triazole-4-carboxylic acid quinolin-3-ylamide], inhibition was half-maximal at 1400 nM (IC50).

Staying with this test, now noted: purified human 15-lipoxygenase, arachidonic acid substrate, room temperature; read-out: IC50.
Consider `O=C(Nc1ccc(Cl)c(Cl)c1Cl)c1c[nH]nn1` [Example 6, 1,2,3-Triazole-4-carboxylic acid (2,3,4-trichlorophenyl)amide], for which the IC50 (commonly the concentration needed to halve the response being measured) amounted to 330 nM.

For `O=C(Nc1ccc(Cl)cn1)c1c[nH]nn1` [Example 7, 1,2,3-Triazole-4-carboxylic acid (5-chloropyridin-2-yl)amide], the IC50 was 1800 nM. Same read-out and setting: next, `O=C(Nc1ccc(Cl)c(Cl)c1)c1c[nH]nn1` [Example 9, 1,2,3-Triazole-4-carboxylic acid (3,4-dichlorophenyl)amide]: 1600 nM; `O=C(Nc1cc(Cl)c(Cl)cc1Cl)c1c[nH]nn1` [Example 12, 1,2,3-Triazole-4-carboxylic acid (2,4,5-trichlorophenyl)amide]: 760 nM.

In the case of `Cc1cc(NC(=O)c2c[nH]nn2)ccc1Cl` [Example 18, 1,2,3-Triazole-4-carboxylic acid (4-chloro-3-methylphenyl)amide], the IC50 turned out to be 950 nM.

For `O=C(Nc1ccc(Br)cn1)c1c[nH]nn1` [Example 35, 1,2,3-Triazole-4-carboxylic acid (5-bromopyridin-2-yl)amide], the IC50 is 810 nM. On the same count and under the same terms, the value for `O=C(Nc1ccc(C(F)(F)F)cc1C(F)(F)F)c1c[nH]nn1` [Example 36, 1,2,3-Triazole-4-carboxylic acid [2,4-bis(trifluoromethyl)phenyl]amide] was 1160 nM. On the same count and under the same terms, next, `O=C(Nc1ccc(C(F)(F)F)cc1[N+](=O)[O-])c1c[nH]nn1` [Example 73, 1,2,3-Triazole-4-carboxylic acid 2-nitro-4-(trifluoromethyl)phenylamide]: 3800 nM. Still for that read-out and setting: next, `O=C(Nc1ccc(Cl)cc1C(F)(F)F)c1c[nH]nn1` [Example 75, 1,2,3-Triazole-4-carboxylic acid 4-chloro-2-(trifluoromethyl)phenylamide]: 250 nM.

For `O=C(Nc1ccc(Cl)cc1F)c1c[nH]nn1` [Example 76, 1,2,3-Triazole-4-carboxylic acid 4-chloro-2-fluorophenylamide], the IC50 amounted to 530 nM. On the same count and under the same terms, the value for `O=C(Nc1cc(Cl)cc(Cl)c1)c1c[nH]nn1` [Example 82, 1,2,3-Triazole-4-carboxylic acid (3,5-dichlorophenyl)amide] was 4100 nM; that for `Cc1ccc(NC(=O)c2c[nH]nn2)cc1F` [Example 91, 1,2,3-Triazole-4-carboxylic acid (3-fluoro-4-methylphenyl)amide] was 9400 nM.
